Experimental data taken from the NIST ThermoML archive (doi:10.1016/j.jct.2018.12.031).

Test: xn = mol fraction of the nth substance listed
Conditions: 100 kPa, Liquid; for speed of sound: Frequency=3 MHz, Linear variable-path acoustic interferometer; for mass density: Pycnometric method

C=C(C)C(=O)OCC [ethyl 2-methylpropenoate] + N#Cc1ccccc1
Conditions | mass density [kg/m3] | speed of sound [m/s]
293.15 K, x2 = 0 | 912.3 | 1196.8
293.15 K, x2 = 0.0711 | 918.32 | 1212.4
293.15 K, x2 = 0.1419 | 924.37 | 1228
293.15 K, x2 = 0.2152 | 930.7 | 1244.1
293.15 K, x2 = 0.2872 | 936.99 | 1259.8
293.15 K, x2 = 0.3568 | 943.14 | 1274.9
293.15 K, x2 = 0.4307 | 949.76 | 1290.9
293.15 K, x2 = 0.4991 | 955.96 | 1306
293.15 K, x2 = 0.5752 | 962.96 | 1323.3
293.15 K, x2 = 0.6431 | 969.29 | 1339.2
293.15 K, x2 = 0.7177 | 976.35 | 1357.7
293.15 K, x2 = 0.7773 | 982.06 | 1373
293.15 K, x2 = 0.8576 | 989.86 | 1394.7
293.15 K, x2 = 0.9289 | 996.89 | 1414.8
298.15 K, x2 = 0 | 907.18 | 1176.9
298.15 K, x2 = 0.0711 | 913.3 | 1193
298.15 K, x2 = 0.1419 | 919.45 | 1208.9
298.15 K, x2 = 0.2152 | 925.88 | 1225
298.15 K, x2 = 0.2872 | 932.27 | 1240.7
298.15 K, x2 = 0.3568 | 938.52 | 1255.7
298.15 K, x2 = 0.4307 | 945.23 | 1271.6
298.15 K, x2 = 0.4991 | 951.53 | 1286.8
298.15 K, x2 = 0.5752 | 958.64 | 1304.2
298.15 K, x2 = 0.6431 | 965.07 | 1320
298.15 K, x2 = 0.7177 | 972.24 | 1338.5
298.15 K, x2 = 0.7773 | 978.04 | 1354
298.15 K, x2 = 0.8576 | 985.97 | 1375.9
298.15 K, x2 = 0.9289 | 993.11 | 1396.3
303.15 K, x2 = 0 | 902.06 | 1157.6
303.15 K, x2 = 0.0711 | 908.28 | 1174.2
303.15 K, x2 = 0.1419 | 914.53 | 1190.4
303.15 K, x2 = 0.2152 | 921.06 | 1206.4
303.15 K, x2 = 0.2872 | 927.55 | 1222.1
303.15 K, x2 = 0.3568 | 933.89 | 1237.4
303.15 K, x2 = 0.4307 | 940.7 | 1253.4
303.15 K, x2 = 0.4991 | 947.1 | 1268.4
303.15 K, x2 = 0.5752 | 954.32 | 1285.8
303.15 K, x2 = 0.6431 | 960.85 | 1301.7
303.15 K, x2 = 0.7177 | 968.13 | 1320.4
303.15 K, x2 = 0.7773 | 974.02 | 1336
303.15 K, x2 = 0.8576 | 982.07 | 1358.2
303.15 K, x2 = 0.9289 | 989.33 | 1379.1
308.15 K, x2 = 0 | 896.94 | 1139.4
308.15 K, x2 = 0.0711 | 903.26 | 1156.4
308.15 K, x2 = 0.1419 | 909.61 | 1172.7
308.15 K, x2 = 0.2152 | 916.24 | 1188.9
308.15 K, x2 = 0.2872 | 922.82 | 1204.6
308.15 K, x2 = 0.3568 | 929.26 | 1219.8
308.15 K, x2 = 0.4307 | 936.17 | 1236
308.15 K, x2 = 0.4991 | 942.67 | 1251.3
308.15 K, x2 = 0.5752 | 949.99 | 1268.7
308.15 K, x2 = 0.6431 | 956.62 | 1284.7
308.15 K, x2 = 0.7177 | 964.02 | 1303.5
308.15 K, x2 = 0.7773 | 970 | 1319.3
308.15 K, x2 = 0.8576 | 978.17 | 1341.8
308.15 K, x2 = 0.9289 | 985.54 | 1362.6
313.15 K, x2 = 0 | 891.83 | 1121.5
313.15 K, x2 = 0.0711 | 898.24 | 1138.9
313.15 K, x2 = 0.1419 | 904.68 | 1155.3
313.15 K, x2 = 0.2152 | 911.41 | 1171.7
313.15 K, x2 = 0.2872 | 918.09 | 1187.4
313.15 K, x2 = 0.3568 | 924.62 | 1202.7
313.15 K, x2 = 0.4307 | 931.64 | 1218.9
313.15 K, x2 = 0.4991 | 938.23 | 1234.1
313.15 K, x2 = 0.5752 | 945.66 | 1251.8
313.15 K, x2 = 0.6431 | 952.39 | 1268.2
313.15 K, x2 = 0.7177 | 959.9 | 1287.3
313.15 K, x2 = 0.7773 | 965.97 | 1303.5
313.15 K, x2 = 0.8576 | 974.27 | 1326.1
313.15 K, x2 = 0.9289 | 981.75 | 1347.2
318.15 K, x2 = 0 | 886.71 | 1104.6
318.15 K, x2 = 0.0711 | 893.22 | 1122.5
318.15 K, x2 = 0.1419 | 899.75 | 1139.1
318.15 K, x2 = 0.2152 | 906.58 | 1155.6
318.15 K, x2 = 0.2872 | 913.35 | 1171.4
318.15 K, x2 = 0.3568 | 919.98 | 1186.5
318.15 K, x2 = 0.4307 | 927.11 | 1202.7
318.15 K, x2 = 0.4991 | 933.79 | 1217.9
318.15 K, x2 = 0.5752 | 941.33 | 1235.6
318.15 K, x2 = 0.6431 | 948.16 | 1252.3
318.15 K, x2 = 0.7177 | 955.78 | 1271.8
318.15 K, x2 = 0.7773 | 961.94 | 1288.2
318.15 K, x2 = 0.8576 | 970.37 | 1311.3
318.15 K, x2 = 0.9289 | 977.96 | 1332.3

C=C(C)C(=O)OCCCC [butyl 2-methyl-2-propenoate] + N#Cc1ccccc1
Conditions | mass density [kg/m3] | speed of sound [m/s]
293.15 K, x2 = 0 | 895.19 | 1241.7
293.15 K, x2 = 0.0721 | 900.73 | 1251.2
293.15 K, x2 = 0.1507 | 907.02 | 1262
293.15 K, x2 = 0.2142 | 912.32 | 1271.2
293.15 K, x2 = 0.2876 | 918.72 | 1282.1
293.15 K, x2 = 0.3511 | 924.51 | 1291.9
293.15 K, x2 = 0.4297 | 932.05 | 1304.6
293.15 K, x2 = 0.4985 | 939.01 | 1316.5
293.15 K, x2 = 0.5715 | 946.81 | 1330
293.15 K, x2 = 0.6465 | 955.32 | 1344.9
293.15 K, x2 = 0.7147 | 963.54 | 1359.7
293.15 K, x2 = 0.7784 | 971.67 | 1374.6
293.15 K, x2 = 0.8558 | 982.2 | 1394.4
293.15 K, x2 = 0.9326 | 993.43 | 1416.2
298.15 K, x2 = 0 | 890.48 | 1222.1
298.15 K, x2 = 0.0721 | 896.08 | 1231.8
298.15 K, x2 = 0.1507 | 902.44 | 1242.8
298.15 K, x2 = 0.2142 | 907.79 | 1252
298.15 K, x2 = 0.2876 | 914.25 | 1262.8
298.15 K, x2 = 0.3511 | 920.1 | 1272.6
298.15 K, x2 = 0.4297 | 927.7 | 1285.3
298.15 K, x2 = 0.4985 | 934.73 | 1297.1
298.15 K, x2 = 0.5715 | 942.6 | 1310.6
298.15 K, x2 = 0.6465 | 951.19 | 1325.7
298.15 K, x2 = 0.7147 | 959.49 | 1340.5
298.15 K, x2 = 0.7784 | 967.7 | 1355.6
298.15 K, x2 = 0.8558 | 978.33 | 1375.6
298.15 K, x2 = 0.9326 | 989.66 | 1397.6
303.15 K, x2 = 0 | 885.78 | 1202.4
303.15 K, x2 = 0.0721 | 891.44 | 1212.4
303.15 K, x2 = 0.1507 | 897.86 | 1223.6
303.15 K, x2 = 0.2142 | 903.26 | 1232.8
303.15 K, x2 = 0.2876 | 909.78 | 1243.7
303.15 K, x2 = 0.3511 | 915.69 | 1253.4
303.15 K, x2 = 0.4297 | 923.35 | 1266.3
303.15 K, x2 = 0.4985 | 930.45 | 1278.1
303.15 K, x2 = 0.5715 | 938.39 | 1291.6
303.15 K, x2 = 0.6465 | 947.06 | 1306.8
303.15 K, x2 = 0.7147 | 955.44 | 1321.9
303.15 K, x2 = 0.7784 | 963.73 | 1337.2
303.15 K, x2 = 0.8558 | 974.46 | 1357.7
303.15 K, x2 = 0.9326 | 985.89 | 1379.9
308.15 K, x2 = 0 | 881.07 | 1183
308.15 K, x2 = 0.0721 | 886.79 | 1193.2
308.15 K, x2 = 0.1507 | 893.27 | 1204.6
308.15 K, x2 = 0.2142 | 898.72 | 1213.9
308.15 K, x2 = 0.2876 | 905.3 | 1225
308.15 K, x2 = 0.3511 | 911.26 | 1234.8
308.15 K, x2 = 0.4297 | 919 | 1247.7
308.15 K, x2 = 0.4985 | 926.16 | 1259.6
308.15 K, x2 = 0.5715 | 934.18 | 1273.2
308.15 K, x2 = 0.6465 | 942.93 | 1288.5
308.15 K, x2 = 0.7147 | 951.39 | 1303.8
308.15 K, x2 = 0.7784 | 959.75 | 1319.5
308.15 K, x2 = 0.8558 | 970.58 | 1340.4
308.15 K, x2 = 0.9326 | 982.12 | 1362.9
313.15 K, x2 = 0 | 876.35 | 1163.8
313.15 K, x2 = 0.0721 | 882.13 | 1174.3
313.15 K, x2 = 0.1507 | 888.68 | 1185.8
313.15 K, x2 = 0.2142 | 894.18 | 1195.3
313.15 K, x2 = 0.2876 | 900.82 | 1206.5
313.15 K, x2 = 0.3511 | 906.83 | 1216.5
313.15 K, x2 = 0.4297 | 914.65 | 1229.5
313.15 K, x2 = 0.4985 | 921.87 | 1241.5
313.15 K, x2 = 0.5715 | 929.96 | 1255.2
313.15 K, x2 = 0.6465 | 938.79 | 1270.7
313.15 K, x2 = 0.7147 | 947.33 | 1286.3
313.15 K, x2 = 0.7784 | 955.77 | 1302.3
313.15 K, x2 = 0.8558 | 966.7 | 1323.7
313.15 K, x2 = 0.9326 | 978.35 | 1346.9
318.15 K, x2 = 0 | 871.64 | 1145.7
318.15 K, x2 = 0.0721 | 877.48 | 1156.5
318.15 K, x2 = 0.1507 | 884.09 | 1168.2
318.15 K, x2 = 0.2142 | 889.64 | 1177.8
318.15 K, x2 = 0.2876 | 896.34 | 1189.1
318.15 K, x2 = 0.3511 | 902.4 | 1199.1
318.15 K, x2 = 0.4297 | 910.29 | 1212.1
318.15 K, x2 = 0.4985 | 917.58 | 1224.2
318.15 K, x2 = 0.5715 | 925.74 | 1238
318.15 K, x2 = 0.6465 | 934.65 | 1253.7
318.15 K, x2 = 0.7147 | 943.27 | 1269.6
318.15 K, x2 = 0.7784 | 951.79 | 1285.9
318.15 K, x2 = 0.8558 | 962.82 | 1307.8
318.15 K, x2 = 0.9326 | 974.58 | 1331.5
